Results taken from ChEMBL document CHEMBL5625251, “Anti-influenza virus activities and mechanism of antrafenine analogs” (Eur J Med Chem, 2023).
Calls of active or inactive are those of the source. The rule behind the calls is not given here.

Key:
Influenza A virus [1] = experiment: Antiviral activity against Influenza A virus A/WSN/33(H1N1) infected in MDCK cells assessed as reduction in virus-induced cytopathic effect at 12.5 uM pre-infected with cells for 1 hrs followed by compound addition and measured after 2 days by MTT assay; type: functional, organism-based; conditions: time 2.0 day
[2] = Selectivity index, ratio of CC50 for cytotoxicity against MDCK cells assessed as reduction in cell viability to IC50 for antiviral activity against Influenza A virus A/WSN/33(H1N1) infected in MDCK cells assessed as inhibition of viral growth; type: toxicity, cell-based; conditions: dog, read-out: Ratio CC50/IC50
Influenza A virus [3] = experiment: Antiviral activity against Influenza A virus B/Florida/4/06 infected in MDCK cells MOI 0.01 assessed as inhibition of viral growth pre-infected for 1 hr followed by compound addition and measured 24 hrs post infection by plaque assay; type: functional, organism-based; conditions: B/Florida/4/06, MDCK
Influenza A virus [4] = experiment: Antiviral activity against Influenza A virus A/WSN/33(H1N1) infected in chicken erythrocytes assessed as reduction in Haemagglutinin level preincubated for 30 mins followed by viral infection and measured after 40 mins; type: functional, organism-based; conditions: Erythrocyte, time 70.0 min
[5] = target: Polymerase acidic protein (Influenza A virus (A/Puerto Rico/8/1934(H1N1)), UniProt P03433); experiment: Binding affinity to C-terminal Influenza A virus Polymerase acidic protein assessed as dissociation constant by MST assay
Influenza A virus [6] = experiment: Antiviral activity against Influenza A virus A/WSN/33(H1N1) infected in MDCK cells MOI 0.1 assessed as reduction in viral titre at 12.5 uM pre-infected with cells for 6 hrs followed by compound addition and measured after 4 to 6 hrs post infection by time of addition assay; type: functional; design: scale not given: the % may be the effect or the level left
Nucleoprotein = Nucleoprotein (Influenza A virus (strain A/Wilson-Smith/1933 H1N1), UniProt P15682); experiment: Binding affinity to Influenza A virus Nucleoprotein assessed as dissociation constant by MST assay
Influenza A virus [7] = experiment: Antiviral activity against Influenza A virus A/PR/8/34 infected in MDCK cells MOI 0.01 assessed as inhibition of viral growth pre-infected for 1 hr followed by compound addition and measured 24 hrs post infection by plaque assay; type: functional, organism-based; conditions: A/PR/8/34, MDCK
Influenza A virus [8] = experiment: Antiviral activity against Influenza A virus A/WSN/33(H1N1) infected in chicken erythrocytes assessed as reduction in neuraminidase level incubated for 2 hrs; type: functional, organism-based; conditions: Erythrocyte
Influenza A virus [9] = experiment: Antiviral activity against Influenza A virus A/WSN/33(H1N1) infected in MDCK cells MOI 0.1 assessed as reduction in viral titre at 12.5 uM pre-infected with cells for 6 hrs followed by compound addition and measured after 2 hrs post infection by time of addition assay; type: functional, organism-based
[10] = Cytotoxicity against African green monkey Vero cells assessed as reduction in cell viability incubated for 48 hrs by MTT assay; type: toxicity, cell-based; conditions: chlorocebus sabaeus
Influenza A virus [11] = experiment: Antiviral activity against Influenza A virus A/WSN/33(H1N1) infected in MDCK cells assessed as inhibition of viral growth pre-infected for 1 hr followed by compound addition and measured 24 hrs post infection by plaque assay; type: functional, organism-based
[12] = Selectivity index, ratio of CC50 for cytotoxicity against African green monkey Vero cells assessed as reduction in cell viability to IC50 for inhibition of Influenza A virus A/WSN/33(H1N1) Ribonucleoprotein transfected in Vero cells; type: toxicity, cell-based; conditions: read-out: Ratio CC50/IC50
[13] = Selectivity index, ratio of CC50 for cytotoxicity against MDCK cells assessed as reduction in cell viability to IC50 for antiviral activity against Influenza A virus A/PR/8/34 infected in MDCK cells MOI 0.01 assessed as inhibition of viral growth; type: toxicity, cell-based; conditions: dog, read-out: Ratio CC50/IC50
Influenza A virus [14] = experiment: Antiviral activity against Influenza A virus A/HK/1/68 infected in MDCK cells MOI 0.01 assessed as inhibition of viral growth pre-infected for 1 hr followed by compound addition and measured 24 hrs post infection by plaque assay; type: functional, organism-based; conditions: A/HK/1/68, MDCK
Influenza A virus [15] = experiment: Antiviral activity against Influenza A virus A/WSN/33(H1N1) infected in MDCK cells MOI 0.1 assessed as inhibition of viral growth at 12.5 uM pre-infected with cells for 6 hrs followed by compound addition and measured after 2 to 4 hrs post infection by time of addition assay; type: functional, organism-based
[16] = Inhibition of Influenza A virus A/WSN/33(H1N1) Ribonucleoprotein transfected in Vero cells incubated for 48 hrs by spectrophotometer analysis; type: cell-based
[17] = Selectivity index, ratio of CC50 for cytotoxicity against MDCK cells assessed as reduction in cell viability to IC50 for antiviral activity against Influenza A virus B/Florida/4/06 infected in MDCK cells MOI 0.01 assessed as inhibition of viral growth; type: toxicity, cell-based; conditions: dog, read-out: Ratio CC50/IC50
[18] = Selectivity index, ratio of CC50 for cytotoxicity against MDCK cells assessed as reduction in cell viability to IC50 for antiviral activity against Influenza A virus A/HK/1/68 infected in MDCK cells MOI 0.01 assessed as inhibition of viral growth; type: toxicity, cell-based; conditions: dog, read-out: Ratio CC50/IC50
Influenza A virus [19] = experiment: Antiviral activity against Influenza A virus A/WSN/33(H1N1) infected in MDCK cells MOI 0.1 assessed as reduction in viral titre at 12.5 uM pre-infected with cells for 6 hrs followed by compound addition and measured after 6 to 8 hrs post infection by time of addition assay; type: functional, organism-based
Influenza A virus [20] = experiment: Antiviral activity against Influenza A virus A/WSN/33(H1N1) infected in MDCK cells MOI 0.1 assessed as reduction in viral titre at 12 uM pre-infected with cells for 6 hrs followed by compound addition and measured after 2 to 4 hrs post infection by time of addition assay; type: functional, organism-based
[21] = Cytotoxicity against MDCK cells assessed as reduction in cell viability incubated for 48 hrs by MTT assay; type: toxicity, cell-based, Canis lupus familiaris; conditions: dog

Chain of Nucleoprotein (P15682 whole entry): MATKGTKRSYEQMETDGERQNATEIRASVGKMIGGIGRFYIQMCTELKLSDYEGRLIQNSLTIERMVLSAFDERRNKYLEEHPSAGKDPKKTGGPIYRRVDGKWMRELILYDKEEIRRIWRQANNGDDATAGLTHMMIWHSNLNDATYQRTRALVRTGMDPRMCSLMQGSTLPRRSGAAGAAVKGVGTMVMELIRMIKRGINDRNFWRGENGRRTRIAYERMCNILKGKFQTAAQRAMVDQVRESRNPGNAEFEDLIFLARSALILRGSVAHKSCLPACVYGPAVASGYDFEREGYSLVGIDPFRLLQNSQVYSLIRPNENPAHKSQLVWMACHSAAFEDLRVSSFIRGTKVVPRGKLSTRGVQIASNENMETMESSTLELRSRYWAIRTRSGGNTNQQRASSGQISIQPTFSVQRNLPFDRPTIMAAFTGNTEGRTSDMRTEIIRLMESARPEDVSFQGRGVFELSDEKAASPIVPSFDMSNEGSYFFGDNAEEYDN

Structure (SMILES): O=C(NCCCN1CCOCC1)c1ccccc1Nc1ccnc2ccc(Cl)cc12
- Activity (Influenza A virus [1]): Active
- selectivity ratio [2]: > 16
- IC50 (Influenza A virus [3]): 3.32 µM
- Activity (Influenza A virus [4]): inactive
- Kd [5]: 28.8 µM
- Activity (Influenza A virus [6]): 5%
- Kd (Nucleoprotein): 33 µM
- IC50 (Influenza A virus [7]): 3.94 µM
- Activity (Influenza A virus [8]): inactive
- Activity (Influenza A virus [9]): Active
- CC50 at 48 h [10]: 31.4 µM
- IC50 (Influenza A virus [11]): 3.21 µM
- selectivity ratio [12]: > 3
- selectivity ratio [13]: > 13
- IC50 (Influenza A virus [14]): 3.31 µM
- inhibition (Influenza A virus [15]): Active
- IC50 [16]: 11.8 µM
- selectivity ratio [17]: > 15
- selectivity ratio [18]: > 15
- Activity (Influenza A virus [19]): inactive
- Activity (Influenza A virus [20]): Active
- CC50 at 48 h [21]: > 50 µM
